Measurements from patent US4725597A, “Bis(piperazinyl or homopiperazinyl)alkanes” (Boehringer Ingelheim Ltd., priority 1984, dated 1988).
Where a name gives a salt, the structure may show the parent alone.

Tests used:
[1] = Solubility limit; conditions: pH 7
[2] = test system: guinea pig basophils; assay: Inhibition of histamine release from guinea pig basophils, Procedure C; type: cell-based; conditions: Cavia porcellus, 1 h, ovalbumin-sensitized, 37° C., 60 minutes, read-out: In Vitro Inhibition of Histamine Release IC50, Procedure C
Experimental: C. Procedure for Determining Inhibition of Histamine Release from Guinea Pig Basophils 1. In Vivo Sensitization: Male Hartley guinea pigs (200-300 gms) are immunized on day 0 with two 0.05 ml intradermal injections of 200 μg ovalbumin. Sensitized basophils are available between days 13-25 post-sensitization. This mode of sensitization favors IgE response. 2. Separation of Leukocytes: The method of Lett-Brown et al., Int. Arch. Allergy, Appl. Immun. 64, 241 (1981) is used. Animals are anesthetized with ether and are bled via cardiac puncture with plastic syringes containing sufficient EDTA to provide a final concentration of 10 mM. One part of 3% gelatin in saline at 37° C. is mixed with two parts of blood in a 16×150 mm tube. The cells are allowed to sediment at a 30° angle for 45 minutes in a 37° C. water bath. The leukocyte-rich plasma is collected and centrifuged at 150×g for 30 minutes at room temperature. The pelleted cells are washed in Hepes-buffered saline (HG) containing 4 mM EDTA and resuspended in Hepes-buffered saline containing Mg^++ and Ca^++ (HGCM) at 4-5×10^6 cells/ml. 3. Reaction Mixture: The reaction is carried out in 12×75 mm plastic tubes and a total volume of 1.2 ml which includes 0.5 ml of antigen, 0.2 ml of drug solution at concentrations ranging from 10-1000 μM and 0.5 ml of prewashed cell suspension. The reaction mixture is incubated in a 37° C. shaking water bath for 60 minutes. Upon completion of the reaction, the tubes are centrifuged and the supernatants collected. The protein is removed from the supernatants by precipitation with 0.2 ml of 8% perchloric acid. 4. Histamine Assay: Histamine release is measured by the automated fluorometric method of Siraganian, supra. The concentration which causes a 50 percent inhibition of Histamine release is computed as in Part A.

[3] = test system: human leukocytes (basophils); assay: Inhibition of histamine release from human leukocytes (basophils), Procedure A; type: cell-based; conditions: Leukocyte, 1 h, rabbit anti-human IgE, 37° C., 60 minutes, (d) No response detected at highest dose indicated, read-out: In Vitro Inhibition of Histamine Release IC50, Procedure A
Experimental: A. Procedure for Determining Inhibition of Histamine Release from Human Leukocytes (Basophils) 1. Separation of Leukocytes: A modification of the method of L. Lichtenstein and A. Osler, J. Exp. Med. 120, 507 (1964) is used. Heparinized human blood (80-100 ml) is mixed with 20 ml of saline (0.2%) containing 0.6 gm of dextrose and 1.2 gm dextran in propylene centrifuge tubes. The mixture is kept at ambient temperature for 60-90 minutes to allow the separation of erythrocytes from the platelet-leukocyte-rich supernate. The supernate is removed and centrifuged for 8 minutes at 110×g in cold. The leukocyte pellet is washed twice with Tris buffer and finally suspended in 150-180 ml Tris-ACM buffer at 1-2×10^6 cells/ml. 2. Reaction Mixture: The reaction is carried out in 12×75 mm plastic tubes at a total volume of […]. The reaction medium includes 0.05 ml rabbit anti-human IgE (the antigen), 0.2 ml of the test compound in water at concentrations ranging from 10-100 μM, and 0.1 ml of the leukocyte suspension. The reaction mixture is incubated in a 37° C. shaking water bath for 60 minutes. Upon completion of the reaction, the tubes are centrifuged and the supernatants collected. The protein is removed from the supernatants by precipitation with 0.2 ml of 8% perchloric acid. 3. Histamine Assay: Histamine release is measured by the automated fluorometric method of W. Siraganian and W. Hook in Chapter 102 of the Manual of Clinical Immunology, 2nd Edition, edited by R. Rose and H. Friedman, published by the American Society for Microbiology, Washington, D.C. 1980. Percent inhibition is calculated as follows: [formula] The concentration which causes a 50 percent inhibition (IC50) of histamine release is interpolated from a plot of percent inhibition versus logarithm of drug concentration.

[4] = test system: rat peritoneal mast cells; assay: Inhibition of histamine release from rat peritoneal mast cells, Procedure B; type: cell-based; conditions: Mast cell, 1 h, sheep anti-rat IgE or ovalbumin, 37° C., 60 minutes, (d) No response detected at highest dose indicated, read-out: In Vitro Inhibition of Histamine Release IC50, Procedure B
Experimental: B. Procedure for Determining Inhibition of Histamine Release from Rat Peritoneal Mast Cells 1. Harvest of Peritoneal Mast Cells: After the rats are sacrificed with ether, 20 ml of Minimum Essential Medium (MEM) containing 20 units/ml heparin is injected into the peritoneum. The abdomen is massaged for one minute and the lavage fluid collected. The peritoneal cells are centrifuged at 1800 rpm for 8 minutes in cold. After two washes with Tris A buffer, the cells are resuspended in Tris ACM buffer at 2-4×10^6 cells/ml. 2. Reaction Mixture: The reaction is carried out in 12×75 mm plastic tubes at a total volume of 1.25 ml. The reaction mixture includes 0.5 ml (10-1000 μg) sheep anti-rat IgE or ovalbumin, 0.2 ml of the test compound in water at concentrations ranging from 10-1000 μM, […] phosphatidylserine solution (20-60 μg to each tube), and 0.5 ml of cell suspension. The reaction mixture is incubated in a 37° C. shaking water bath for 60 minutes. Upon completion of the reaction, the tubes are centrifuged and the supernatants collected. The protein is removed from the supernatants by precipitation with 0.2 ml of 8% perchloric acid. 3. Histamine Assay: Histamine release is measured by the automated fluorometric method of Siraganian, supra. The concentration which causes a 50% inhibition (IC50) of histamine release is computed as in Part A.

SMILES	solubility [1] [µg/mL]	IC50 [2] [µM]	IC50 [3] [µM]	IC50 [4] [µM]
Cl.Cl.Cl.Cl.Clc1ccc(CCCN2CCN(CCCN3CCN(CCCc4ccc(Cl)cc4)CC3)CC2)cc1.O [Example 24, 1,3 -Bis[4-(3-{4-chlorophenyl}propyl)-1-piperazinyl]propane tetrahydrochloride monohydrate]	1000	8.9	2	2
Clc1ccc(CN2CCCN(CCCN3CCCN(Cc4ccc(Cl)cc4)CC3)CC2)cc1 [Example 28, 1,3-Bis[4-(4-chlorobenzyl)-1-homopiperazinyl]propane tetrahydrochloride]		2.3	6	9
OC(CN1CCN(Cc2ccc(Cl)cc2)CC1)CN1CCN(Cc2ccc(Cl)cc2)CC1 [Example 2, 1,3-Bis[4-(4-chlorobenzyl)-1-piperazinyl]-2-hydroxypropane]		23	12	80
